Assay [1] has as its target T1, recombinant human B1 receptors (Homo sapiens, UniProt P46663).
T1 construct: host or cells: CHO (CHO-B1)
T1 sequence (P46663 1-353): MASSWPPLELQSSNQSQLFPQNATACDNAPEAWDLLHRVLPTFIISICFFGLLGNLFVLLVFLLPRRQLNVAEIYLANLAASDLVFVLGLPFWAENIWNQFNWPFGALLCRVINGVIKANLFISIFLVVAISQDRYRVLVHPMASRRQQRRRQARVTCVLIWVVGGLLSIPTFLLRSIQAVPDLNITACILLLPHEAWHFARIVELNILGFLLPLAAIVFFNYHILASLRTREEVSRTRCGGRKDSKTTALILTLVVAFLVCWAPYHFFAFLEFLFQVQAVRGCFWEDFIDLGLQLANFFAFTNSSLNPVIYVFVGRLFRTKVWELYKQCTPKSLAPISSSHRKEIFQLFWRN
The assay is described as follows: Functional assay: antagonist potency by cytosolic calcium measurement (plate reader fluorimeter) in CHO-B1 cells, agonist LysDABK. It is filed as cell-based. Particulars: CHO-B1 cells, inhibition of LysDABK (EC80)-evoked [Ca2+]i elevation; read-out: B1 func. Summed up: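 IC50 is the concentration giving half-maximal inhibition of the LysDABK (EC80) calcium response, fitted from at least three experiments. CHO cells stably expressing human B1 were dye-loaded, exposed to compound for 20-25 min, then read by fluo-4 fluorescence (ΔF/F) at 37 °C.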

Assay [2] has as its target T2, human recombinant bradykinin B1 receptor (Homo sapiens, UniProt P46663).
T2 construct: host or cells: CHO cells, clone hB1-A5
T2 sequence (P46663 1-353): T1 sequence (P46663 1-353)
The assay is described as follows: Human recombinant bradykinin B1 receptor competitive radioligand binding. As to conditions: hB1 expressed in CHO cells, [3H]-[Des-Arg10] Kallidin radioligand; read-out: B1 binding. Summed up:
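Membranes from CHO cells expressing hB1 (20 μg protein/tube) incubated 15 min at 25° C. with [3,4-prolyl-3,4-^3H(N)]-[Des-Arg^10] Kallidin; nonspecific binding defined with 10 μM Lys-des-Arg^9-Bradykinin. Bound label collected by filtration and counted. IC50 from ≥7-point curves in triplicate; Ki by Cheng-Prusoff.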

Where only a bound is given, the exact number is not on record here.

As to `COc1cc(C(=O)NC2(C(=O)N[C@H](C)c3ccc(-n4c(-c5noc(C)n5)c(Cl)c5ccccc54)cc3)CC2)on1` [Example 41, (R)-3-Methoxy-isoxazole-5-carboxylic acid [1-(1-{4-[3-chloro-2-(5-methyl-[1,2,4]oxadiazol-3-yl)-indol-1-yl]-phenyl}-ethylcarbamoyl)-cyclopropyl]-amide], the IC50 in assay [1] was below 20 nM. For the same compound, the Ki in assay [2] is below 20 nM.
Turning to `COc1cc(C(=O)NC2(C(=O)NCc3ccc(-n4c(-c5nc(C)no5)cc5cc(F)ccc54)cc3)CC2)on1` [Example 103, 3-Methoxy-isoxazole-5-carboxylic acid (1-{4-[5-fluoro-2-(3-methyl-[1,2,4]oxadiazol-5-yl)-indol-1-yl]-benzylcarbamoyl}-cyclopropyl)-amide], the IC50 in assay [1] is below 20 nM. The Ki in assay [2] is below 20 nM.
`COc1cc(C(=O)NC2(C(=O)NCc3ccc(-n4c(-c5noc(C)n5)c(Cl)c5cc(Cl)ccc54)cc3)CC2)on1` [Example 66, 3-Methoxy-isoxazole-5-carboxylic acid (1-{4-[3,5-dichloro-2-(5-methyl-[1,2,4]oxadiazol-3-yl)-indol-1-yl]-benzylcarbamoyl}-cyclopropyl)-amide]: the IC50 in assay [1] was below 20 nM. Further, the Ki in assay [2] is below 20 nM.
With `Cc1nc(-c2cc3cc(F)ccc3n2-c2ccc(CNC(=O)C3(NC(=O)c4cncc(C(F)(F)F)c4)CC3)cc2)no1` [Example 46, N-(1-{4-[5-Fluoro-2-(5-methyl-[1,2,4]oxadiazol-3-yl)-indol-1-yl]-benzylcarbamoyl}-cyclopropyl)-5-trifluoromethyl-nicotinamide], in assay [1], the IC50 was below 20 nM. Further, the Ki in assay [2] is below 20 nM.
With `Cn1nnc(-c2c(Cl)c3ccccc3n2-c2ccc(CNC(=O)C3(NC(=O)c4cccnc4F)CC3)cc2)n1` [Example 119, N-(1-{4-[3-Chloro-2-(2-methyl-2H-tetrazol-5-yl)-indol-1-yl]-benzylcarbamoyl}-cyclopropyl)-2-fluoro-nicotinamide], the IC50 in assay [1] was below 20 nM. The Ki in assay [2] is below 20 nM.
In the case of `N#Cc1cc2cc(Cl)ccc2n1-c1ccc(CNC(=O)C2(NC(=O)c3cncc(C(F)(F)F)c3)CC2)cc1` [Example 100, N-{1-[4-(5-Chloro-2-cyano-indol-1-yl)-benzylcarbamoyl]-cyclopropyl}-5-trifluoromethyl-nicotinamide], in assay [1], the IC50 is below 20 nM. Moreover, in assay [2], the Ki was below 20 nM.
With `Cc1nc(-c2c(Cl)c3ccccc3n2-c2ccc(CNC(=O)C3(NC(=O)c4ccc(F)nc4)CC3)cc2)no1` [Example 99, N-(1-{4-[3-Chloro-2-(5-methyl-[1,2,4]oxadiazol-3-yl)-indol-1-yl]-benzylcarbamoyl}-cyclopropyl)-6-fluoro-nicotinamide], the IC50 in assay [1] was below 20 nM. In addition, in assay [2], the Ki was below 20 nM.
For `Cc1nc(-c2c(Cl)c3ccccc3n2-c2ccc(CNC(=O)C3(NC(=O)c4cncc(C(F)(F)F)c4)CC3)c(F)c2)no1` [Example 111, N-(1-{4-[3-Chloro-2-(5-methyl-[1,2,4]oxadiazol-3-yl)-indol-1-yl]-2-fluoro-benzylcarbamoyl}-cyclopropyl)-5-trifluoromethyl-nicotinamide], in assay [1], the IC50 is below 20 nM. For the same compound, the Ki in assay [2] was below 20 nM.
Regarding `Cc1nc(-c2c(Cl)c3ccccc3n2-c2ccc(CNC(=O)C3(NC(=O)c4cncc(C(F)(F)F)c4)CC3)cc2)no1` [Example 180, N-(1-{4-[3-Chloro-2-(5-methyl-[1,2,4]oxadiazol-3-yl)-indol-1-yl]-benzylcarbamoyl}-cyclopropyl)-5-trifluoromethyl-nicotinamide], the IC50 in assay [1] is below 20 nM. For the same compound, the Ki in assay [2] was below 20 nM.
Turning to `Cc1ccc(C(=O)NC2(C(=O)NCc3ccc(-n4c(-c5noc(C)n5)c(Cl)c5ccccc54)cc3)CC2)c(Cl)n1` [Example 156, 2-Chloro-N-(1-{4-[3-chloro-2-(5-methyl-[1,2,4]oxadiazol-3-yl)-indol-1-yl]-benzylcarbamoyl}-cyclopropyl)-6-methyl-nicotinamide], the IC50 in assay [1] was below 20 nM. Also, the Ki in assay [2] was below 20 nM.

For the origin of these results see US20130217702A1 (Richter Gedeon Nyrt., priority 2010, published 2013).
